Experimental data taken from patent publication US20250115590A1, “MATRIX METALLOPROTEINASE (MMP) INHIBITORS AND METHODS OF USE THEREOF” (Foresee Pharmaceuticals USA, Inc., priority 2018, published 2025).
Where two headings read alike, the source gives them in different places.

Tests used:
Format in all cases: biochemical
[1] = target: recombinant human MMP-12 catalytic domain (Homo sapiens (Human), UniProt P39900); assay: MMP-12 inhibitory assay (fluorogenic substrate cleavage)
Protocol: (§1) The inhibitory effect of compounds on the rate of cleaving fluorogenic MMP substrate (Enzo, BML-P128) by recombinant human MMP-12 catalytic domain (Enzo, BML-SE138) was carried out by methods known in the art. Briefly, to each well of a 96-well black opaque plate, all the reagents were sequentially added by pipetting, and the final reaction contained 4 nM of recombinant human MMP-12 catalytic domain, […] of fluorogenic MMP substrate, and various concentrations (0.15 nM to 10,000 nM) of tested compound dilutions in HEPES buffer (pH 7.5) containing 10 mM of CaCl2, 0.01% Brij® 35 (polyoxyethylene (23) lauryl ether), and 0.1 mg/ml of BSA.
(§2) The enzyme and compounds were pre-incubated on a shaker to mix in wells. After an hour of mixing, fluorogenic substrate was added to each well. Reaction without enzyme was used as a blank control in the plate. The plate was then fed into a plate reader to measure fluorescence intensity at Excitation/Emission wavelengths of 340 nm/440 nm every 10 mins for at least 1 hour at 37° C. The IC50 of each compound in MMP-12 inhibition was determined by using a readout obtained at time point 30 minutes.

[2] = target: recombinant human MMP-2 (Homo sapiens (Human), UniProt P08253); assay: MMP selectivity assay, MMP-2; details: Table 2 selectivity profile; read-out: MMP-2 Activity (IC50 class)
Protocol: as §1, §2
(§3) The MMP selectivity assay was performed by using other recombinant human MMPs, including MMP-1, MMP-2, MMP-3, MMP-7, MMP-8, MMP-9, MMP-10, MMP-13, and MMP-14. The IC50 of the compounds for the other recombinant human MMPs was determined as described above in Example 1, and are shown in Table 2.

[3] = target: recombinant human MMP-9 (Homo sapiens (Human), UniProt P14780); assay: MMP selectivity assay, MMP-9; details: Table 2 selectivity profile; read-out: MMP-9 Activity (IC50 class)
Protocol: as §1, §2, §3

[4] = target: recombinant human MMP-10 (Homo sapiens (Human), UniProt P09238); assay: MMP selectivity assay, MMP-10; details: Table 2 selectivity profile; read-out: MMP-10 Activity (IC50 class)
Protocol: as §1, §2, §3

[5] = target: recombinant human MMP-13 (Homo sapiens (Human), UniProt P45452); assay: MMP selectivity assay, MMP-13; details: Table 2 selectivity profile; read-out: MMP-13 Activity (IC50 class)
Protocol: as §1, §2, §3

[6] = target: recombinant human MMP-14 (Homo sapiens (Human), UniProt P50281); assay: MMP selectivity assay, MMP-14; details: Table 2 selectivity profile; read-out: MMP-14 Activity (IC50 class)
Protocol: as §1, §2, §3

[7] = target: recombinant human MMP-8 (Homo sapiens (Human), UniProt P22894); assay: MMP selectivity assay, MMP-8; details: Table 2 selectivity profile; read-out: MMP-8 Activity (IC50 class)
Protocol: as §1, §2, §3

[8] = target: recombinant human MMP-3 (Homo sapiens (Human), UniProt P08254); assay: MMP selectivity assay, MMP-3; details: Table 2 selectivity profile; read-out: MMP-3 Activity (IC50 class)
Protocol: as §1, §2, §3

[9] = target: recombinant human MMP-7 (Homo sapiens (Human), UniProt P09237); assay: MMP selectivity assay, MMP-7; details: Table 2 selectivity profile; read-out: MMP-7 Activity (IC50 class)
Protocol: as §1
The enzyme and compounds were pre-incubated on a shaker to mix in wells. After an hour of mixing, fluorogenic substrate was added to each well. […] The plate was then fed into a plate reader to measure fluorescence intensity at Excitation/Emission wavelengths of 340 nm/440 nm every 10 mins for at least 1 hour at 37° C. The IC50 of each compound in MMP-12 inhibition was determined by using a readout obtained at time point 30 minutes.
as §3

[10] = Table 2 selectivity profile, read-out: MMP-12 Activity (IC50 class)
[11] = readout at 30 minutes, 37° C., pH 7.5, Table 1, read-out: MMP-12 IC50

recombinant human MMP-8, sequence (P22894 101-467): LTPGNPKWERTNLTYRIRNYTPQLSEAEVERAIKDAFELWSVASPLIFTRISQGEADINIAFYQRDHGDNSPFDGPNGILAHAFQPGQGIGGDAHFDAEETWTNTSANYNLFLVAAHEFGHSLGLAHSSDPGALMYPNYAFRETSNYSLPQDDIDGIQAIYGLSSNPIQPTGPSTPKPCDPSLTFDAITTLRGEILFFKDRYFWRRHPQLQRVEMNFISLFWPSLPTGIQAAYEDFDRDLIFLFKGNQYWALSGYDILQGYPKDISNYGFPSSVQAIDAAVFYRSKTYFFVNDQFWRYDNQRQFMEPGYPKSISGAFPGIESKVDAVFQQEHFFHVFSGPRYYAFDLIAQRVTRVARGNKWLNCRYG
recombinant human MMP-12 catalytic domain, sequence (P39900 106-268): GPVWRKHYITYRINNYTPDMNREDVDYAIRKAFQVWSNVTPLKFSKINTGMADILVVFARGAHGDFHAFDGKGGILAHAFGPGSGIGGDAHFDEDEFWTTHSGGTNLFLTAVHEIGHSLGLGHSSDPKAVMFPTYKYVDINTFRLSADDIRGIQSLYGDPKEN
recombinant human MMP-9, sequence (P14780 94-707): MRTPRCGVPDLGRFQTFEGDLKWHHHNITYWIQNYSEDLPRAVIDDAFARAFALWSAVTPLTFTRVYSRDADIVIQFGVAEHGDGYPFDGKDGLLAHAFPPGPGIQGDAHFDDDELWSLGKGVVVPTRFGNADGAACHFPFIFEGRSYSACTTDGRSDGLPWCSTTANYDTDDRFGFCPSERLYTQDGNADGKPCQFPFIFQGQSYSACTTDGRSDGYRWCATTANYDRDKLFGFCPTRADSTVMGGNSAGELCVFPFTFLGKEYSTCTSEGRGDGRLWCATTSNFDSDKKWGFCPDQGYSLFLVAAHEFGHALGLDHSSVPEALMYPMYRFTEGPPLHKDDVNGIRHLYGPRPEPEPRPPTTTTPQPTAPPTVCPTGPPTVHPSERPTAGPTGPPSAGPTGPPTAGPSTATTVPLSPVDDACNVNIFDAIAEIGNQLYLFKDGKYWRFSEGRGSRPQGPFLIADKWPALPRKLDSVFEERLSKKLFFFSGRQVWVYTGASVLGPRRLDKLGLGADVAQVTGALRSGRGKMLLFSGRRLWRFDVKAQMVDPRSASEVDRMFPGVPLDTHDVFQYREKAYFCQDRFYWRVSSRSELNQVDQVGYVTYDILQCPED
recombinant human MMP-2, sequence (P08253 110-660): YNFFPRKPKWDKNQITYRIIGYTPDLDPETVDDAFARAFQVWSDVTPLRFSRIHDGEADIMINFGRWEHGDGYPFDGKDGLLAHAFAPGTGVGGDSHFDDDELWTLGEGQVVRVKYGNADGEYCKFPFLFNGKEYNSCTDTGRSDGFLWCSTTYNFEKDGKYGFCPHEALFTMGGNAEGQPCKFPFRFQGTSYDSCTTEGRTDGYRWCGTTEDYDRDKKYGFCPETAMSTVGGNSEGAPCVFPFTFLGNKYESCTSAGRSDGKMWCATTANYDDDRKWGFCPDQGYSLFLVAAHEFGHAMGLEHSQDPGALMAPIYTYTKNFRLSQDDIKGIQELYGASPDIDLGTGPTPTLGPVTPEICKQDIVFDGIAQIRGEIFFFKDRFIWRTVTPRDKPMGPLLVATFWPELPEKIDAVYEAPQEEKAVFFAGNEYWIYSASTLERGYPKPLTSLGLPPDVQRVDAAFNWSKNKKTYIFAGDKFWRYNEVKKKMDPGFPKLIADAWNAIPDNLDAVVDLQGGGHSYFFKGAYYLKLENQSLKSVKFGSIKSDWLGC
recombinant human MMP-10, sequence (P09238 99-476): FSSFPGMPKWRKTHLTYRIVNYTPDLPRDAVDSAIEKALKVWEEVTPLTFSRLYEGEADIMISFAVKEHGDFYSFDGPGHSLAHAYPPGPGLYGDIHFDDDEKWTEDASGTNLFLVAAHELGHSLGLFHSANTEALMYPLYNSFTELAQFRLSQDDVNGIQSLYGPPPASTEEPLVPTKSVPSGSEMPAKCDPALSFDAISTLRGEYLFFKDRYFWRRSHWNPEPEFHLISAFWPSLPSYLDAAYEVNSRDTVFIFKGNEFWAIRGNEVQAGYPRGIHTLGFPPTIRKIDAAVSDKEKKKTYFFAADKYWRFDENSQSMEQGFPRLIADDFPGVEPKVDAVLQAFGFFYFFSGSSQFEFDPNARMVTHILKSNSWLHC
recombinant human MMP-3, sequence (P08254 100-477): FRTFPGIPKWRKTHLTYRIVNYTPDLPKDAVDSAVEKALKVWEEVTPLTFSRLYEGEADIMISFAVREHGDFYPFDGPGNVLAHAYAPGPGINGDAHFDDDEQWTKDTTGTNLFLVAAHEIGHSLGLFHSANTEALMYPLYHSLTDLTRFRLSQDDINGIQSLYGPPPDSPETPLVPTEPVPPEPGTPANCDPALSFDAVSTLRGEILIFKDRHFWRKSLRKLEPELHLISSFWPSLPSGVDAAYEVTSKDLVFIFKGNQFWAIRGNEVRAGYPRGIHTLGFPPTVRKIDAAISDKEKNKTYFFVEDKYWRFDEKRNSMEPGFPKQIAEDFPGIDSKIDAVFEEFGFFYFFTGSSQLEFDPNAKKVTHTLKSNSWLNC
recombinant human MMP-7, sequence (P09237 95-267): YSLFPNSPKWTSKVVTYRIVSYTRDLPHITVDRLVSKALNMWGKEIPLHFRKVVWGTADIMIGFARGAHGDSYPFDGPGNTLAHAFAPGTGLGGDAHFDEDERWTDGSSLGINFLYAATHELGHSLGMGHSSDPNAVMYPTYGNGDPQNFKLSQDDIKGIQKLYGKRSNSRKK

| SMILES | IC50 [1, 10] [nM] | IC50 [1, 11] [nM] | IC50 [2] [nM] | IC50 [3] [nM] | IC50 [4] [nM] | also measured |
| --- | --- | --- | --- | --- | --- | --- |
| O=C1NC(=O)C(c2sccc2Sc2ccc(OCc3cccc(CO)c3)cc2)N1 (stereo not shown) [TC4] | < 10 | < 10 | > 1000 | > 1000 | > 1000 | IC50 [5]: > 1000 nM; IC50 [6]: > 1000 nM |
| O=C1NC(=O)C(c2sccc2Sc2ccc(OCc3ccc(CO)cc3)cc2)N1 (stereo not shown) [TC6] |  | < 10 |  |  |  |  |
| Cc1cc(COc2ccc(Sc3cnccc3C3NC(=O)NC3=O)cc2)ccn1 (stereo not shown) [PC-18] |  | < 10 |  |  |  |  |
| NC(=O)c1ccncc1COc1ccc(Sc2ccncc2C2NC(=O)NC2=O)cc1 (stereo not shown) [PC-38] |  | > 1000 |  |  |  |  |
| CCC1(c2cnccc2Sc2ccc(OCc3cccc(C)c3)cc2)NC(=O)NC1=O (stereo not shown) [PC-22] | < 10 | < 10 | > 1000 | > 1000 | > 1000 | IC50 [7]: > 1000 nM; IC50 [6]: > 1000 nM |
| Cc1cc(COc2ccc(Sc3ccncc3C3C(=O)N(C)C(=O)N3C)cc2)ccn1 (stereo not shown) [PC-54] |  | > 1000 |  |  |  |  |
| O=C1NC(=O)C(c2ccncc2Sc2ccc(OCc3cncc(C(=O)O)c3)cc2)N1 (stereo not shown) [PC-24] |  | > 1000 |  |  |  |  |
| CCC1(c2cnccc2Sc2ccc(OCc3ccnc(C)c3)cc2)NC(=O)NC1=O (stereo not shown) [PC-63] |  | < 10 |  |  |  |  |
| Cc1cc(COc2ccc(Sc3ccncc3C3NC(=O)NC3=O)cc2C)ccn1 (stereo not shown) [PC-48] | < 10 | < 10 | > 1000 | > 1000 | > 1000 | IC50 [8]: > 1000 nM; IC50 [7]: > 1000 nM |
| Cc1cc(COc2ccc(Sc3ccncc3C3NC(=O)NC3=O)c(F)c2)ccn1 (stereo not shown) [PC-50] | < 10 | < 10 |  | > 1000 | > 1000 | IC50 [6]: > 1000 nM |
| CCC1(c2ccncc2Sc2ccc(OCc3ccnc(C)c3)cc2)NC(=O)NC1=O (stereo not shown) [PC-64] |  | < 10 |  |  |  |  |
| O=C1NC(=O)C(c2cnccc2Sc2ccc(OCc3cccc(O)c3)cc2)N1 (stereo not shown) [PC-10] | < 10 | < 10 | > 1000 | > 1000 |  | IC50 [8]: > 1000 nM; IC50 [7]: > 1000 nM; IC50 [5]: > 1000 nM |
| Cc1cc(COc2ccc(Sc3cnn(C)c3C3NC(=O)NC3=O)cc2)ccn1 (stereo not shown) [OC-12] | < 10 | < 10 |  | > 1000 | > 1000 | IC50 [8]: > 1000 nM; IC50 [6]: > 1000 nM |
| O=C1NC(=O)C(c2ccncc2Sc2ccc(OCc3cccc(O)c3)cc2)N1 (stereo not shown) [PC-15] |  | < 10 |  |  |  |  |
| NC(=O)c1cccc(COc2ccc(Sc3ccncc3C3NC(=O)NC3=O)cc2)c1 (stereo not shown) [PC-28] | < 10 | < 10 | > 1000 | > 1000 | > 1000 | IC50 [8]: > 1000 nM; IC50 [6]: > 1000 nM |
| O=C1NC(=O)C(c2cnccc2Sc2ccc(OCc3ccnc(CO)c3)cc2)N1 (stereo not shown) [PC-40] |  | < 10 |  |  |  |  |

| SMILES | IC50 [1, 10] [nM] | IC50 [1, 11] [nM] | IC50 [2] [nM] | IC50 [3] [nM] | IC50 [4] [nM] | also measured |
| --- | --- | --- | --- | --- | --- | --- |
| O=C1NC(=O)C(c2sccc2Sc2ccc(OCc3ccccc3CO)cc2)N1 (stereo not shown) [TC5] | < 10 | < 10 | > 1000 | > 1000 | > 1000 | IC50 [8]: > 1000 nM; IC50 [7]: > 1000 nM |
| Cc1cc(COc2ccc(Sc3ocnc3C3NC(=O)NC3=O)cc2)ccn1 (stereo not shown) [OC-11] |  | > 1000 |  |  |  |  |
| Cc1cc(COc2ccc(Sc3ccncc3C3(C)C(=O)N(C)C(=O)N3C)cc2)ccn1 (stereo not shown) [PC-46] |  | > 1000 |  |  |  |  |
| O=C1NC(=O)C(c2cnccc2Sc2ccc(OCc3cccc(CO)c3)cc2)N1 (stereo not shown) [PC-8] | < 10 | < 10 | > 1000 |  |  | IC50 [8]: > 1000 nM; IC50 [5]: > 1000 nM |
| Cc1cc(COc2ccc(Sc3ccncc3C3NC(=O)NC3=O)c(Cl)c2)ccn1 (stereo not shown) [PC-51] | < 10 | < 10 | > 1000 | > 1000 | > 1000 | IC50 [8]: > 1000 nM; IC50 [9]: > 1000 nM; IC50 [6]: > 1000 nM |
| Cc1cc(COc2ccc(Sc3ncn(C)c3C3NC(=O)NC3=O)cc2)ccn1 (stereo not shown) [OC-13] | < 10 | < 10 |  | > 1000 | > 1000 | IC50 [8]: > 1000 nM |
| O=C1NC(=O)C(c2cnccc2Sc2ccc(OCc3cncc(C(=O)O)c3)cc2)N1 (stereo not shown) [PC-21] |  | > 1000 |  |  |  |  |
| O=C1NC(=O)C(c2sccc2Sc2ccc(OCc3cccc(O)c3)cc2)N1 (stereo not shown) [TC7] |  | < 10 |  |  |  |  |
| O=C1NC(=O)C(c2ccncc2Sc2ccc(OCc3cccc(CO)c3)cc2)N1 (stereo not shown) [PC-13] | < 10 | < 10 | > 1000 | > 1000 | > 1000 | IC50 [7]: > 1000 nM; IC50 [5]: > 1000 nM |
| O=C1NC(=O)C(c2ccncc2Sc2ccc(OCc3cncc(CO)c3)cc2)N1 (stereo not shown) [PC-47] |  | > 1000 |  |  |  |  |
| O=C1NC(=O)C(c2ccncc2Sc2ccc(OCc3ccccc3CO)cc2)N1 (stereo not shown) [PC-12] | < 10 | < 10 | > 1000 | > 1000 | > 1000 | IC50 [7]: > 1000 nM |
| Cc1cc(COc2ccc(Sc3ncoc3C3NC(=O)NC3=O)cc2)ccn1 (stereo not shown) [OC-7] | < 10 | < 10 |  | > 1000 | > 1000 | IC50 [8]: > 1000 nM |
| Cc1cc(COc2ccc(Sc3ccsc3C3NC(=O)NC3=O)cc2)ccn1 (stereo not shown) [TC8] | < 10 | < 10 |  |  |  | IC50 [9]: > 1000 nM |
| NC(=O)c1cc(COc2ccc(Sc3cnccc3C3NC(=O)NC3=O)cc2)ccn1 (stereo not shown) [PC-59] |  | 100 to 1000 |  |  |  |  |
| Cc1cccc(OCc2ccc(Sc3ccncc3C3NC(=O)NC3=O)cc2)c1 (stereo not shown) [PC-43] |  | > 1000 |  |  |  |  |
| O=C1NC(=O)C(c2cnccc2Sc2ccc(OCc3ccnc(C(=O)O)c3)cc2)N1 (stereo not shown) [PC-20] |  | > 1000 |  |  |  |  |
